Source: publication PMC5344956 (Cancer Chemotherapy and Pharmacology, 2017)

Assays:
[1] = Metabolite characterization by LC/MS/MS in human plasma, urine, and feces; settings: for Matrix (in which the metabolite was found): human plasma, urine, feces, LC/MS/MS
Experimental: The remaining eluate stream of 0.16 mL/min from the HPLC runs was diverted to the inlet of the mass spectrometer. The samples were analyzed using a heated electrospray ionization probe. Full-scan positive ion MS data were collected using Finnigan Exactive (MS^1) or Q-Exactive (MS^1 and MS^2) mass spectrometers (Thermo Fisher Scientific Inc.) Exact conditions are described in the Online Resource 3.
Finnigan Exactive or Q-Exactive mass spectrometers (Thermo Fisher Scientific Inc., San Jose, CA) were used to collect full scan MS^1 and MS^2 data.

[2] = Metabolite profiling of plasma (HPLC-radiochromatography); type: in vivo, human; settings: % of TRA
Experimental: For each subject, a 0–24 h pooled plasma sample was prepared according to the scheme outlined in the literature. In addition, several pooled plasma samples across all subjects were prepared at these time points: 5, 10, 12, […], and 48 h, and every 24 h thereafter until 240 h.
All pooled 0–24, 5, 10, 12, and 24 h plasma samples were processed as follows. […] The samples were vortexed for 30 min and centrifuged at 4500g at 4 °C for 6 min. The supernatants were transferred into new polypropylene tubes and kept on ice. The resulting plasma protein pellets were extracted twice to ensure good recovery and the extracts were combined. The combined extracts were loaded onto Ostro sample preparation plates (Waters Corporation, Milford, MA, USA), dried, eluted with 0.2 mL of cold acetonitrile, and all eluates were collected and evaporated under nitrogen (TurboVap LV; Caliper Life Sciences, Hopkinton, MA, USA). The dry residues were reconstituted in 0.1 mL of methanol, and a 0.005-mL aliquot was removed for determination of radioactivity. The remainder of the supernatants were transferred to high-performance liquid chromatography (HPLC) vials and stored at −80 °C until analysis.
Pooled post-24-h plasma samples were extracted using a slightly modified procedure. […] Appropriate volumes of formic acid were added to achieve a final concentration of 1%. Then, the samples were warmed to 37 °C and loaded to preconditioned Oasis HLB cartridges (Waters Corporation, Milford, MA, USA). These columns were then washed with water, dried under vacuum, and eluted with methanol. The eluates were collected and evaporated under nitrogen. The dry residues were reconstituted in 0.1 mL of methanol, and a 0.005-mL aliquot was removed for determination of radioactivity. The remainder of the supernatants were transferred to HPLC vials and stored at −80 °C until analysis.
(§1) A Finnigan Surveyor HPLC system (Thermo Fisher Scientific Inc., San Jose, CA, USA), consisting of an LC pump plus an autosampler and a UV–Vis plus detector, was used mostly for profiling (except the post-24-h plasma samples, which were analyzed using a Dionex HPLC system). A Phenomenex® Gemini® C18, 5-μm, 3.0 × 100-mm column (Phenomenex Inc., Torrance, CA, USA) was used along with a C-12 guard column (4 × 2 mm). LC conditions were as follows: solvent A was 10 mM ammonium bicarbonate in water (pH 10.0) and solvent B was 100% methanol and the flow rate was 0.8 mL/min. The following gradient was employed (B%): 0–5 min (20%), 32 min (42%), 33 min (60%), 55 min (70%), 56–60 min (95%), and 62–70 min (20%).
(§2) Reconstituted solvent extracts (0.050–0.10 mL) of plasma, urine, or feces were injected onto the HPLC column. The post-column eluate was split after UV detection into two streams (0.64 and 0.16 mL/min). The 0.64-mL stream was diverted to a fraction collector (Gilson FX 204; Gilson Medical Electronics, Middleton, WI, USA) to be collected in 96-well plates at 0.16 min/well (ScintiPlates; PerkinElmer Life Sciences, Shelton, CT, USA), and the 0.16-mL stream was directed to the mass spectrometer. The solvent in the 96-well plates was removed at 40 °C using a Genevac evaporator (Genevac, Inc., Stone Ridge, NY, USA).
(§3) The radioactivity counts per minute (CPM) in each well was determined using a MicroBeta scintillation counter (PerkinElmer Life and Analytical Sciences). The resulting CPM vs. time data were processed using Excel (Microsoft Corporation, Seattle, WA, USA). The CPM in each well was background-subtracted (using the average CPM values of the blank region of the HPLC run). Radiochromatographic profiles were obtained by plotting the resulting net CPM values against time after injection. Radioactive peaks in the chromatographic profiles were identified, and the radioactivity in each peak was summed and reported as a percentage of TRA in the HPLC run.

[3] = Metabolite profiling of feces (HPLC-radiochromatography); type: in vivo, human; settings: 0–144 h pool
Experimental: One-gram samples of the fecal homogenates were transferred to 50-mL polypropylene tubes, extracted with 4 mL of methanol, and centrifuged (4500g). The resulting residues were extracted three more times (once with 2 mL of methanol and twice with 1 mL of methanol containing 1% formic acid) and centrifuged. All supernatants were combined and evaporated under nitrogen, and the residue was reconstituted with 0.5 mL of methanol, vortexed, sonicated, and centrifuged. A 0.010-mL aliquot of the supernatant was removed for determination of radioactivity, and the remainder of the supernatant was transferred to an HPLC vial and stored at −80 °C.
as §1, §2, §3

[4] = Plasma pharmacokinetics of TRA, ponatinib and metabolites after a single oral 45-mg [14C]ponatinib dose
Experimental: The subject release criterion was defined as follows: the combined urine and fecal radioactivity excretion for two consecutive days should fall below 1% of the dose administered.
Detailed procedures on sample collection, storage, and shipment are described in Online Resource 1. […] Fecal homogenates were prepared by adding water (four times the feces weight) and homogenizing.
(§4) TRA analysis was carried out at ABC Laboratories. The radioactivity in plasma (duplicate per time point) and urine samples (triplicate per time point) was quantitated by direct counting in a Beckman LS6000SC or LS6500 liquid scintillation counter (PerkinElmer Life and Analytical Sciences, Boston, MA, USA). Whole blood (duplicate per time point) and fecal homogenate (triplicate per time point) samples were oxidized, and the resultant ^14CO2 was trapped in Carbosorb (Calgon Carbon Corporation, Pittsburgh, PA, USA) in combination with Permafluor, followed by liquid scintillation counting to determine the radioactivity. Individual samples were counted for 5 min for whole blood and fecal matrices, and 10 min for plasma and urine matrices. Predose blood, plasma, urine, and feces samples served as respective control samples to determine and subtract the background radioactivity in the analysis.
M14 was quantitated using a different LC/MS/MS method (Online Resource 2). The pharmacokinetic analysis was carried out using WinNonlin® v6.4 (Pharsight Corp., Mountain View, CA, USA).
Aliquots of 30 µl of calibration standards, quality controls, and incurred plasma samples were transferred into a 96-well plate. Then 150 µl of ice-cold acetonitrile containing 50 ng/ml of AP30376 (d6-AP24600, internal standard) were added. The 96-well plate was vortexed for 10 min and then centrifuged at 4750 rpm for 20 min at 4°C. 100 µl aliquots of the supernatants were transferred into another 96-well plate and the samples were analyzed by liquid chromatography tandem mass spectrometry.

[5] = Excretion and mass balance in urine and feces; type: in vivo, human
Description: Six healthy male volunteers, 25–45 years of age, with a mean body weight of 83.3 kg (range 64.5–94.4) and a mean body mass index of 26.9 kg/m^2 (range 20.2–29.9) participated in the study. […] The subject release criterion was defined as follows: the combined urine and fecal radioactivity excretion for two consecutive days should fall below 1% of the dose administered.
Detailed procedures on sample collection, storage, and shipment are described in Online Resource 1. […] Urine and feces collected from each subject were pooled at predose and every 24 h thereafter. Fecal homogenates were prepared by adding water (four times the feces weight) and homogenizing.
as §4
All urine voided was collected and stored in containers at 5±3 °C until the collection interval was completed. Subjects voided in the morning prior to study drug administration.
Multiple collections of urine during each collection interval from each individual subject were pooled. The urine samples from each collection interval were well mixed, accurately weighed, and assessed for its pH. A 100 ml sample from each collection interval from each subject was aliquoted into a separately labeled container to be sent to ABC Laboratories for radioactivity analysis. An approximately 10 ml sample from each collection interval from each subject on day 8 and each day thereafter was used for TRA analysis at Celerion (Lincoln, NE). All urine samples were kept frozen at −80 ± 15 °C.
Stool collections began approximately 24 h prior to drug administration until the end of the postdose sampling period. The 24 h predose samples were used as control samples for the radioactivity analysis and metabolite profiling. Feces were collected daily (24 h collection periods) until subjects were discharged from the clinical research unit.
All fecal samples were collected in polypropylene containers; toilet paper was collected separately. The weight of each sample was recorded. Multiple collections of feces during each collection interval from each individual subject were pooled. The feces samples were thoroughly homogenized with water (4X the weight of the feces). A 100 g sample was aliquoted into a separately labeled container to be sent to ABC Laboratories for radioactivity analysis. An approximately 10 g sample from each collection interval from each subject on day 8 and each day thereafter was used for TRA analysis at Celerion. All fecal homogenate samples were kept frozen at −80 ± 15 °C.

SMILES	Matrix (in which the metabolite was found) [1]	% Distribution in plasma ([2]; 0–24 h pooled plasma)	% Distribution in plasma ([2]; 5 h pooled plasma)	% Distribution in plasma ([2]; 10 h pooled plasma)	% Distribution in plasma ([2]; 12 h pooled plasma)	% Distribution in plasma ([2]; 36 h pooled plasma)	% Distribution in plasma ([2]; 48 h pooled plasma)	% Distribution in plasma ([2]; 72 h pooled plasma)	% Distribution in plasma ([2]; 96 h pooled plasma)	further results
CN1CCN(Cc2ccc(N)cc2C(F)(F)F)CC1 [M19, 4-((4-methylpiperazin-1-yl)methyl)-3-(trifluoromethyl)aniline]										detection in human samples (plasma, urine, feces) ([1]; in vivo): not observed in any human samples; detection in human samples (plasma, urine, feces) ([1]; male, human, in vivo): The amide hydrolysis also would result in an aniline metabolite M19 (AP24592). However, this metabolite was not detected in any matrices.
CC(=O)Nc1ccc(CN2CCN(C)CC2)c(C(F)(F)F)c1 [M22]	Trace: P, U, F									detection in human samples (plasma, urine, feces) ([1]; MS traces): trace levels
Cc1ccc(C(=O)Nc2ccc(CN3CC[N+](C)([O-])CC3)c(C(F)(F)F)c2)cc1C#Cc1cnc2cccnn12 [M36, 4-(4-(3-(imidazo[1,2-b]pyridazin-3-ylethynyl)-4-methylbenzamido)-2-(trifluoromethyl)benzyl)-1-methylpiperazine 1-oxide]	P, U, F	~0.5–1.0%	~0.5%	~0.5–1.0%	~0.5–1.0%	– (“–” values less than 0.5% are not reported)	– (“–” values less than 0.5% are not reported)	– (“–” values less than 0.5% are not reported)	– (“–” values less than 0.5% are not reported)	
Cc1ccc(C(=O)Nc2ccc(CN3CCNCC3)c(C(F)(F)F)c2)cc1C#Cc1cnc2cccnn12 [M42, 3-(imidazo[1,2-b]pyridazin-3-ylethynyl)-4-methyl-N-(4-(piperazin-1-ylmethyl)-3-(trifluoromethyl)phenyl)benzamide]	P, U, F	~0.5–1.0%	~0.5–1.0%	~0.5–1.0%	~0.5–1.0%	– (“–” values less than 0.5% are not reported)	– (“–” values less than 0.5% are not reported)	– (“–” values less than 0.5% are not reported)	– (“–” values less than 0.5% are not reported)	% of total radioactive dose [3]: 8.3%; % Distribution in matrix ([3]; % of fecal TRA): 9.6%; plasma level at 144 h postdose ([4]; human plasma, 144 h postdose): at or below detectable limits; time postdose at which C max / maximal levels in plasma were observed ([4]; human plasma, single oral 45-mg dose, M23 by radiochromatography): 2 to 12 h; concentration at 144 h ([4]; male, human, plasma, oral, 45 mg): < 0.2 nM; AUC(0-inf) ([4]; male, human, plasma, po, 45 mg): 1.8 µM·h; AUC(0-t) ([4]; male, human, plasma, po, 45 mg): 1.61 µM·h; Cmax ([4]; male, human, plasma, po, 45 mg): 107 nM; Tmax ([4]; male, human, plasma, po, 45 mg): 2 h; half-life ([4]; male, human, plasma, po, 45 mg): 56 h
Cc1ccc([14C](=O)Nc2ccc(CN3CCN(C)CC3)c(C(F)(F)F)c2)cc1C#Cc1cnc2cccnn12 [[^14C]ponatinib]										share of total urinary TRA contained in the 0–72-h pool ([5]; 0–72 h): 84%; cumulative recovery in feces during 0–144 h, share of the TRA in feces ([5]; 0–144 h): 91%; dose recovered in feces ([5]; 0–336 h (days 0–14) postdose): 86.6%; dose recovered in urine ([5]; 0–336 h (days 0–14) postdose): 5.4%; total radioactive dose recovered (urine and feces) ([5]; 0–336 h postdose): 92%
